Laboratory results taken from the NIST ThermoML archive (doi:10.1016/j.fluid.2018.08.012).
Numbers after ± are expanded uncertainties.

Experiment: mn = molality of the nth substance listed, in mol/kg
Conditions: Fluid (supercritical or subcritical phases), Vibrating tube method, m1 = 0.2867

O=O [oxygen] + O=C=O
Conditions | mass density [kg/m3]
324.14 K, 2522.5 kPa | 45.49 ± 0.08
324.14 K, 2531.8 kPa | 45.7 ± 0.08
324.14 K, 4992.7 kPa | 102.94 ± 0.19
324.14 K, 4998.9 kPa | 103.15 ± 0.19
324.14 K, 7566.1 kPa | 190.74 ± 0.49
324.14 K, 7573.3 kPa | 191.05 ± 0.49
324.14 K, 10066 kPa | 353.17 ± 1.1
324.14 K, 10098 kPa | 356.14 ± 1.1
324.14 K, 12475 kPa | 568.33 ± 1.4
324.14 K, 12572 kPa | 574.14 ± 1.4
324.14 K, 15029 kPa | 672.53 ± 1.2
324.14 K, 15098 kPa | 674.53 ± 1.2
324.14 K, 17553 kPa | 728.46 ± 0.99
324.14 K, 17623 kPa | 729.72 ± 0.99
324.14 K, 20076 kPa | 766.9 ± 0.87
324.14 K, 20148 kPa | 767.83 ± 0.87
324.14 K, 22597 kPa | 796.51 ± 0.79
324.14 K, 22667 kPa | 797.24 ± 0.8
324.14 K, 25116 kPa | 820.6 ± 0.74
324.14 K, 25186 kPa | 821.19 ± 0.74
324.14 K, 27631 kPa | 841.02 ± 0.72
324.14 K, 27694 kPa | 841.49 ± 0.72
324.14 K, 30138 kPa | 858.75 ± 0.71
324.14 K, 30191 kPa | 859.1 ± 0.71
324.14 K, 32647 kPa | 874.55 ± 0.67
324.14 K, 32683 kPa | 874.75 ± 0.67
324.14 K, 35167 kPa | 888.83 ± 0.72
324.14 K, 35203 kPa | 889.04 ± 0.72
349.64 K, 2302.3 kPa | 37.34 ± 0.07
349.64 K, 2512.6 kPa | 41.14 ± 0.07
349.64 K, 4999.4 kPa | 89.28 ± 0.15
349.64 K, 5056.2 kPa | 90.61 ± 0.16
349.64 K, 7565.3 kPa | 151.08 ± 0.29
349.64 K, 7587.3 kPa | 151.35 ± 0.29
349.64 K, 10124 kPa | 230.35 ± 0.59
349.64 K, 10132 kPa | 230.46 ± 0.59
349.64 K, 12648 kPa | 331.76 ± 1
349.64 K, 12654 kPa | 331.87 ± 1
349.64 K, 15179 kPa | 445.16 ± 1.3
349.64 K, 15184 kPa | 445.19 ± 1.3
349.64 K, 17705 kPa | 539.74 ± 1.3
349.64 K, 17709 kPa | 539.82 ± 1.3
349.64 K, 20232 kPa | 608.22 ± 1.2
349.64 K, 20234 kPa | 608.3 ± 1.2
349.64 K, 22753 kPa | 658.24 ± 1.1
349.64 K, 22754 kPa | 658.22 ± 1.1
349.64 K, 25272 kPa | 696.75 ± 1
349.64 K, 25273 kPa | 696.87 ± 1
349.64 K, 27781 kPa | 727.9 ± 0.99
349.64 K, 27787 kPa | 728.07 ± 0.99
349.64 K, 30280 kPa | 753.96 ± 0.96
349.64 K, 30284 kPa | 754.07 ± 0.96
349.64 K, 32783 kPa | 776.37 ± 0.94
349.64 K, 32788 kPa | 776.48 ± 0.94
349.64 K, 35276 kPa | 795.97 ± 0.96
349.64 K, 35282 kPa | 796.06 ± 0.96
375.03 K, 2543.1 kPa | 38.14 ± 0.07
375.03 K, 2546.2 kPa | 38.31 ± 0.07
375.03 K, 5059.3 kPa | 80.85 ± 0.13
375.03 K, 5060.3 kPa | 80.97 ± 0.13
375.03 K, 7540.3 kPa | 129.17 ± 0.23
375.03 K, 7545.1 kPa | 129.65 ± 0.23
375.03 K, 10091 kPa | 186.78 ± 0.38
375.03 K, 10093 kPa | 186.66 ± 0.38
375.03 K, 12606 kPa | 251.89 ± 0.59
375.03 K, 12615 kPa | 252.03 ± 0.59
375.03 K, 15138 kPa | 324.48 ± 0.84
375.03 K, 15156 kPa | 324.83 ± 0.84
375.03 K, 17663 kPa | 398.41 ± 1.1
375.03 K, 17683 kPa | 398.81 ± 1.1
375.03 K, 20185 kPa | 466.78 ± 1.2
375.03 K, 20209 kPa | 467.22 ± 1.2
375.03 K, 22704 kPa | 525.43 ± 1.3
375.03 K, 22730 kPa | 525.92 ± 1.3
375.03 K, 25225 kPa | 574.34 ± 1.3
375.03 K, 25249 kPa | 574.81 ± 1.3
375.03 K, 27742 kPa | 614.94 ± 1.2
375.03 K, 27764 kPa | 615.3 ± 1.2
375.03 K, 30257 kPa | 648.94 ± 1.2
375.03 K, 30265 kPa | 649.12 ± 1.2
375.03 K, 32764 kPa | 678.12 ± 1.2
375.03 K, 32769 kPa | 678.04 ± 1.2
375.03 K, 35257 kPa | 703.36 ± 1.3
375.03 K, 35260 kPa | 703.21 ± 1.3
400.19 K, 2573.8 kPa | 35.12 ± 0.07
400.19 K, 2574.8 kPa | 35.31 ± 0.07
400.19 K, 5072.3 kPa | 73.3 ± 0.12
400.19 K, 5100.4 kPa | 73.64 ± 0.12
400.19 K, 7612.6 kPa | 115.55 ± 0.2
400.19 K, 7616.5 kPa | 115.71 ± 0.2
400.19 K, 10127 kPa | 162.27 ± 0.31
400.19 K, 10138 kPa | 162.47 ± 0.31
400.19 K, 12592 kPa | 211.79 ± 0.46
400.19 K, 12600 kPa | 212.51 ± 0.46
400.19 K, 15121 kPa | 265.98 ± 0.64
400.19 K, 15134 kPa | 266.82 ± 0.64
400.19 K, 17648 kPa | 321.85 ± 0.83
400.19 K, 17661 kPa | 322.66 ± 0.83
400.19 K, 20173 kPa | 377.08 ± 1
400.19 K, 20186 kPa | 377.95 ± 1
400.19 K, 22693 kPa | 429.17 ± 1.2
400.19 K, 22707 kPa | 430.08 ± 1.2
400.19 K, 25212 kPa | 476.61 ± 1.3
400.19 K, 25228 kPa | 477.53 ± 1.3
400.19 K, 27728 kPa | 518.93 ± 1.4
400.19 K, 27743 kPa | 519.82 ± 1.4
400.19 K, 30241 kPa | 556.24 ± 1.4
400.19 K, 30253 kPa | 557.1 ± 1.4
400.19 K, 32739 kPa | 588.97 ± 1.4
400.19 K, 32757 kPa | 589.89 ± 1.4
400.19 K, 35235 kPa | 617.97 ± 1.4
400.19 K, 35247 kPa | 618.78 ± 1.4
